Legend:
[1] = molecular target: T1, human recombinant glutaminyl cyclase (hQC) (Homo sapiens, UniProt Q16769); test: In vitro determination of human QC inhibitory activity (SensoLyte Green Glutaminyl Cyclase Activity Assay Kit); assay type: biochemical
T1 construct: purchased Eurogentec AS-72230
Procedure: Basic statistical analysis was performed.

[2] = Parallel artificial membrane permeation assay for blood-brain barrier (PAMPA-BBB); assay type: in vitro ADME, porcine; conditions: for Papp: pig, PBS:EtOH (70:30), read-out: Blood-brain barrier permeability Pe; for CNS prediction: predictive penetration in the CNS from Pe
Procedure: A parallel artificial membrane permeation assay for blood-brain barrier (PAMPA-BBB) was used to evaluate the brain penetration of compounds of formula I, following the method described by L. Di et al., “High throughput artificial membrane permeability assay for blood-brain barrier”, European Journal of Medicinal Chemistry 2003, vol. 38. pp. 223-232. The in vitro permeability (Pe) of the test compounds through a lipid extract of porcine brain membrane was determined. Assayed compounds were tested using a mixture of PBS:EtOH (70:30). Assay validation was made by comparing the experimental and reported permeability values of a set of fourteen commercial drugs and a lineal correlation between experimental and reported permeability values of the fourteen commercial drugs was obtained (y=1.678 x−1.447; R^2=0.9313). From this equation and taking into account the limits established by Di et al. for BBB permeation, the ranges of permeability were established, as follows. Compounds of high BBB permeation (CNS+): Pe (10^−6 cm s^−1)>5.26; compounds of low BBB permeation (CNS−): Pe (10^−6 cm s^−1)<1.91; and compounds of uncertain BBB permeation (CNS+/−): 5.26>Pe (10^−6 cm s^−1)>1.91. The permeability results are averages of three different experiments in triplicate and a predictive penetration in the CNS is also given (Table 5).

[3] = molecular target: T2, recombinant human sEH (hsEH) (Homo sapiens, UniProt P34913); test: In vitro determination of sEH inhibitory activity (fluorescent PHOME assay)
T2 sequence (P34913 1-555): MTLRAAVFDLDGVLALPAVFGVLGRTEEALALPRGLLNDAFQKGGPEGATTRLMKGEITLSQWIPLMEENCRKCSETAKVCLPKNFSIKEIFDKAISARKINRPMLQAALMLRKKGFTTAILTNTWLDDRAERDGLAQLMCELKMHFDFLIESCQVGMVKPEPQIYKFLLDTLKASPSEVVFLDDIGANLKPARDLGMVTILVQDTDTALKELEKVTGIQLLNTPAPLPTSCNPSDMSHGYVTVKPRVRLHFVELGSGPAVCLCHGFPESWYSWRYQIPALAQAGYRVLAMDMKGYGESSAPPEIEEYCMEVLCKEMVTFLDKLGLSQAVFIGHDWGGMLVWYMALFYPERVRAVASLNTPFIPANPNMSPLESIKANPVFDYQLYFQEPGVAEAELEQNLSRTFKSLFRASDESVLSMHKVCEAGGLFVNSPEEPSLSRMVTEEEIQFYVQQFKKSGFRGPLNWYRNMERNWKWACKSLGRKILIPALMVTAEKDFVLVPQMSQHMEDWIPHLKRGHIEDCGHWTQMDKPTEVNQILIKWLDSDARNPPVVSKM
Procedure: Control compound (TPPU): N-[1-(1-Oxopropyl)-4-piperidinyl]-N′-[4-(trifluoromethoxy)phenyl]urea.
Five μL of DMSO were added to background and positive control wells, and then 5 μL of inhibitor solution were added in the inhibitor wells. Five μL of the solution of hsEH were added to the positive control and inhibitor wells and the mixture was stirred. A 1/21 dilution of the solution of PHOME with assay buffer was prepared according to the final volume required, and then 105 μL of each well were added. The plate was carefully shaken for 10 seconds and was incubated for 5 minutes at room temperature. […] The intensity of fluorescence was used to analyze and calculate the IC50 values. Results were obtained by regression analysis from at least three data points in a linear region of the curve. IC50 values are average of minimum three independent replicates.

LPS stimulated BV2 cells = test: Cytokine release in LPS stimulated BV2 cells; assay type: cell-based, murine; conditions: compound 10 μM, 24 h
Procedure: Compounds of formula I were diluted from 250 mM DMSO stock solutions to a 10 mM stock in DMSO. Thereafter, the compounds were diluted to 10 μM and 1 μM in medium, so that the final DMSO concentration in the well was 0.1% for all conditions. The stock solutions were stored at −20° C. until further use.
Culture and treatment of BV-2 cells: The murine microglial cell line BV-2 was cultivated in Dulbecco's modified eagle medium (DMEM) supplemented with 10% fetal calf serum (FCS), 1% penicillin/streptomycin and 2 mM L-glutamine (culture medium). For the lipopolysaccharide (LPS) stimulation assay, 20,000 BV-2 cells per well (uncoated 96 well plates) were plated out. After 48 h, the medium was changed to treatment medium (DMEM, 5% FCS, 2 mM L-glutamine) and cells were maintained in treatment medium for the remaining culture period. After changing cells to treatment medium, the compounds were administered 1 h before LPS stimulation (Sigma-Aldrich; L6529; 1 mg/mL stock in ddH2O, final concentration in well: 100 ng/mL (dilutions in medium)). Cells treated with vehicle and LPS alone served as controls. All wells were handled the same way. After 24 h of stimulation, cell supernatants were collected for the cytokine measurement. The experiment was performed in n=6 technical replicates for all groups.
Cytokine measurement: The samples were diluted 1:2 and analysed for 4 cytokines (IL-1β, IL-2, IL-6, TNF-α) with a commercially available immunosorbent assay kit (U-plex, K15069L, Mesoscale Discovery) according to the instructions of the manufacturer. In brief, 25 μL of diluent 41 and 25 μL sample or respective standard were placed into wells of the pre-coated U-plex plate and incubated on an orbital shaker at room temperature for 1 h. Plates were washed 3 times with phosphate buffered saline with 0.05% Tween 20 (PBST) and thereafter 50 μL of detection antibody were added. Plates were again incubated on an orbital shaker at room temperature for 1 h. After another 3 washing steps with PBST, 150 μL of Mesoscale Discovery (MSD) GOLD Read Buffer were added and plates were read on Sector imager. Data were evaluated in comparison to calibration curves provided in the kit.
Statistics: Basic statistical analysis was performed. Group differences were evaluated by e.g. one-way ANOVA followed by a posthoc test, if appropriate.

T1 sequence (Q16769 29-361): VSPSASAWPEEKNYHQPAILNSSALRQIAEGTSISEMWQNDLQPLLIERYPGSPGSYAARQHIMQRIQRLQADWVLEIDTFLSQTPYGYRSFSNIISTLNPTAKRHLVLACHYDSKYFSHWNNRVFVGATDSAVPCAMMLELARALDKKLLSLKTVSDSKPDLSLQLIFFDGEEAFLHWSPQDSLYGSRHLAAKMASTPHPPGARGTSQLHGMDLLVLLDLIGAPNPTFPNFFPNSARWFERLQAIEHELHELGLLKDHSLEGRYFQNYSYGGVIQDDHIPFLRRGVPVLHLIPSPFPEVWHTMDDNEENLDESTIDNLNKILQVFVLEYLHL

Row | SMILES | IC50 [1] [nM] | Papp [2] [×10⁻⁶ cm/s] | IC50 [3] [nM] | CNS prediction [2] | IL-1β level (LPS stimulated BV2 cells) | IL-2 level (LPS stimulated BV2 cells) | IL-6 level (LPS stimulated BV2 cells) | TNF-α level (LPS stimulated BV2 cells)
1 | Cc1cncn1CCCNC(=O)NC1C2CC3CC(C2)CC1(F)C3 (racemic) [Iaa, (±)-1-(1-fluoroadamantan-2-yl)-3-[3-(5-methyl-1H-imidazol-1-yl)propyl]urea] | 767 | 7.4 | 5900 | CNS+ (Compounds of high BBB permeation (CNS+): Pe (10^−6 cm s^−1)>5.26) | – | – | – | –
2 | O=C(NCCCn1ccnc1)NC12CC3CC(CC(C3)C1)C2 [Ib, 1-[3-(1H-imidazol-1-yl)propyl]-3-(adamantan-1-yl)urea] | 12700 | – | 93 | – | – | – | – | –
3 | Cc1cncn1CCCNC(=O)NC12CC3CC(CC(C3)O1)C2 [Iq, 1-(2-oxaadamantan-1-yl)-3-[3-(5-methyl-1H-imidazol-1-yl)propyl]urea] | – | 26.4 | 5100 | CNS+ (Compounds of high BBB permeation (CNS+): Pe (10^−6 cm s^−1)>5.26) | – | – | – | –
4 | CCC(=O)N1CCC(NC(=O)Nc2ccc(OC(F)(F)F)cc2)CC1 [TPPU, N-[1-(1-Oxopropyl)-4-piperidinyl]-N′-[4-(trifluoromethoxy)phenyl]urea, reference compound] | – | – | – | – | 125 % of vehicle control | 113 % of vehicle control | 117 % of vehicle control | 96 % of vehicle control
5 | C[C@@H]1C[C@H]2[C@@H]3CCC4=CC(=O)C=C[C@]4(C)[C@@]3(F)[C@@H](O)C[C@]2(C)[C@@]1(O)C(=O)CO [dexamethasone, reference compound] | – | – | – | – | 42 % of vehicle control | 50 % of vehicle control | 55 % of vehicle control | 49 % of vehicle control

The next lines start with results.

Row | IC50 [1] [nM] | Papp [2] [×10⁻⁶ cm/s] | IC50 [3] [nM] | SMILES | CNS prediction [2] | IL-1β level (LPS stimulated BV2 cells) | IL-2 level (LPS stimulated BV2 cells) | IL-6 level (LPS stimulated BV2 cells) | TNF-α level (LPS stimulated BV2 cells)
6 | 496 | 6 | 30 | Cc1cncn1CCCNC(=O)NC1C2CC3CC(C2)CC1(Cl)C3 (racemic) [Iz, (±)-1-(1-chloroadamantan-2-yl)-3-[3-(5-methyl-1H-imidazol-1-yl)propyl]urea] | CNS+ (Compounds of high BBB permeation (CNS+): Pe (10^−6 cm s^−1)>5.26) | – | – | – | –
7 | – | 10.2 | 13.3 | Cc1cncn1CCCNC(=O)NC12CC3CC(CC(C)(C3)C1)C2 [Ic, 1-[3-(5-methyl-1H-imidazol-1-yl)propyl]-3-(3-methyladamantan-1-yl)urea] | CNS+ (Compounds of high BBB permeation (CNS+): Pe (10^−6 cm s^−1)>5.26) | – | – | – | –
8 | 990 | – | 37 | Cc1cncn1CCCNC(=O)NC12CC3CC(CC(Cl)(C3)C1)C2 [If, 1-(3-chloroadamantan-1-yl)-3-[3-(5-methyl-1H-imidazol-1-yl)propyl]urea] | – | – | – | – | –
9 | 810 | – | 150 | Cc1cncn1CCCNC(=O)NC12CC3CC(CC(F)(C3)C1)C2 [Ig, 1-(3-fluoroadamantan-1-yl)-3-[3-(5-methyl-1H-imidazol-1-yl)propyl]urea] | – | – | – | – | –
10 | 1040 | – | 330 | Cc1cncn1CCCNC(=O)NC12CC3CC(CC(O)(C3)C1)C2 [Ih, 1-(3-hydroxyadamantan-1-yl)-3-[3-(5-methyl-1H-imidazol-1-yl)propyl]urea] | – | – | – | – | –
11 | – | 5.4 | 194 | Cc1cncn1CCCNC(=O)NCC12CC3CC(CC1C3)C2 [Iu, 1-[(noradamantan-3-yl)methyl]-3-[3-(5-methyl-1H-imidazol-1-yl)propyl]urea] | CNS+ (Compounds of high BBB permeation (CNS+): Pe (10^−6 cm s^−1)>5.26) | – | – | – | –
12 | 6800 | – | 72 | Cc1cncn1CCCNC(=O)NCC12CC3(C)C4(C)CC1CC4(C)C3(C)C2 [Iw, 1-[3-(5-methyl-1H-imidazol-1-yl)propyl]-3-[(3,4,8,9-tetramethyltetracyclo[4.4.0.0^3,9.0^4,8]decan-1-yl)methyl]urea] | – | – | – | – | –
13 | – | 6.5 | 59 | Cc1cncn1CCCNC(=O)NC(C)C12CC3CC(CC(C3)C1)C2 (centres unmarked) [Ix, 1-[1-(adamantan-1-yl)ethyl]-3-[3-(5-methyl-1H-imidazol-1-yl)propyl]urea] | CNS+ (Compounds of high BBB permeation (CNS+): Pe (10^−6 cm s^−1)>5.26) | – | – | – | –

Source: patent US20260092039A1, “DUAL INHIBITORS FOR THE TREATMENT OF ALZHEIMER'S DISEASE” (UNIVERSITAT DE BARCELONA, priority 2023, published 2026)
